Results on one molecule are retold here after paper PMC5520056, “Cryo-EM structures of the ATP-bound Vps4^E233Q hexamer and its complex with Vta1 at near-atomic resolution” (Nature Communications, 2017).

In this assay the target is T1, Vps4–Vta1 complex (Saccharomyces cerevisiae, UniProt P52917).
T1 construct: both proteins with N-terminal His6 tag (pET28a), E. coli BL21(DE3); Vps4 hexamer with Vta1 at ~2:1 Vta1/Vps4; four Vta1 CTD dimers modelled; with Vacuolar protein sorting-associated protein VTA1
T1 sequence (P52917 1-437 E233Q): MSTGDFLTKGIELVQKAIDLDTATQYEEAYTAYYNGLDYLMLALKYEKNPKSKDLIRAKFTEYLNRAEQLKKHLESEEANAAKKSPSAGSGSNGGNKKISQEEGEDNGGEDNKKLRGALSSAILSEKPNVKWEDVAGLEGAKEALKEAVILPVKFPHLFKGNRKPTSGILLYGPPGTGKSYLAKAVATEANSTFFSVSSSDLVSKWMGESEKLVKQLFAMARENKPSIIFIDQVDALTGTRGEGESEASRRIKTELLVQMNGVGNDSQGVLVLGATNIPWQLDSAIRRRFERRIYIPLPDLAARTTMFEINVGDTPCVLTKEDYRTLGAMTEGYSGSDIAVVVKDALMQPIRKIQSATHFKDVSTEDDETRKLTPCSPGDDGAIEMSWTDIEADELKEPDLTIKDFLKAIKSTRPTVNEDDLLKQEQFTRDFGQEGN
T1 sequence (Q06263 1-330 partner): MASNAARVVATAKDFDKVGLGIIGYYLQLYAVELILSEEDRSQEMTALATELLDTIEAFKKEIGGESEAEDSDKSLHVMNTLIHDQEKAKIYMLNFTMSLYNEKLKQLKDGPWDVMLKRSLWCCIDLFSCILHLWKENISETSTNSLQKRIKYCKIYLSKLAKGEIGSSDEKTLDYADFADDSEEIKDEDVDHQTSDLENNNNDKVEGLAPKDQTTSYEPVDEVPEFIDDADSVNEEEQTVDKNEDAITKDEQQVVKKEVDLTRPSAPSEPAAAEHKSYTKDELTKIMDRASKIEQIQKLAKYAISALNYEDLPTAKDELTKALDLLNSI
Description: malachite green phosphate release (ATPase). It counts as biochemical. The following applies: 1 uM Vps4, 5 mM ATP, 2 mM MgCl2, pH 7.5, 37 °C; Vta1 present.

Consider `Nc1ncnc2c1ncn2[C@@H]1O[C@H](COP(=O)(O)OP(=O)(O)OP(=O)(O)O)[C@@H](O)[C@H]1O` [ATP], for which the “malachite green phosphate release (ATPase)” value was “the ATPase activity of the wild-type Vps4 was increased by twofold in the presence of Vta1”.
